These results are taken from ChEMBL document CHEMBL1147327, “Developments in marine natural products. Receptor-specific bioactive compounds” (1993).

Active and inactive are the calls of the source. The calls are words filed in the database; no cut-off is given here.

In assay [1] the test system is Candida albicans. Description: Antifungal activity against Candida albicans at 0.5 ug/disk by agar disk diffusion assay. In kind it is functional. Particulars: read-out: IZ. For orientation: A growth-free zone around the sample is the usual read-out of agar diffusion tests.
In assay [2] the test system is Candida albicans. Description: Antifungal activity against Candida albicans in presence of 100 ppm exogenous ergosterol by agar disk diffusion assay. Type of assay: functional, organism-based.
The subject of assay [3] is Candida albicans. In words: Antifungal activity against Candida albicans at 10 ug in presence of 20 ppm exogenous ergosterol. Type of assay: functional.
Assay [4] has as its system Candida albicans. In words: Antifungal activity against Candida albicans by agar disk diffusion assay. In kind it is functional, organism-based.

As for `CCCCCCCCCCCCC(=O)O[C@@H](c1cnco1)c1nc([C@@H](O)C[C@@H](O)[C@@H](O)[C@@H](C)O)co1` [BENGAZOLE C], in the assay with Candida albicans [1], the zone of inhibition at 0.5 µg/disc was 9 mm.
Take `CC(C)CCCCCCCCCCC(=O)O[C@@H](c1cnco1)c1nc([C@@H](O)C[C@@H](O)[C@@H](O)[C@@H](C)O)co1` [BENGAZOLE D]: the zone of inhibition at 0.5 µg/disc with Candida albicans [1] was determined as 9 mm.
Consider `CCC(C)CCCCCCCCCCC(=O)O[C@@H](c1cnco1)c1nc([C@H](O)C[C@@H](O)[C@@H](O)[C@@H](C)O)co1` (stereo partly specified) [BENGAZOLE B1], for which the zone of inhibition at 0.5 µg/disc in the assay with Candida albicans [1] is 9 mm.
With `CCCCCCCCCCCCCC(=O)O[C@@H](c1cnco1)c1nc([C@@H](O)C[C@@H](O)[C@@H](O)[C@@H](C)O)co1` [BENGAZOLE A], the zone of inhibition at 0.5 µg/disc in the assay with Candida albicans [1] stood at 9 mm.
As for `CCCCCCCCCCCCCCCC(=O)O[C@@H](c1cnco1)c1nc([C@@H](O)C[C@@H](O)[C@@H](O)[C@@H](C)O)co1` [BENGAZOLE G], in the assay on Candida albicans [1], the zone of inhibition at 0.5 µg/disc was 9 mm.
As for `CCC(C)CCCCCCCCCCCC(=O)O[C@@H](c1cnco1)c1nc([C@@H](O)C[C@@H](O)[C@@H](O)[C@@H](C)O)co1` (stereo partly specified) [BENGAZOLE F], in the assay with Candida albicans [1], the zone of inhibition at 0.5 µg/disc worked out at 9 mm.
On to `CC1=C[C@@H]2C[C@@H](C)[C@]3(C)C[C@@H]([C@@]4(C)CC[C@@H]([C@@H](C)C(=O)O)OO4)O[C@]3(C)[C@@H]2CC1`, for which, in the assay on Candida albicans [2], the result was Active.
For `CCCCCCCCCCCCCCC(=O)O[C@@H](c1cnco1)c1nc([C@@H](O)C[C@@H](O)[C@@H](O)[C@@H](C)O)co1` [BENGAZOLE E], in the assay with Candida albicans [1], the zone of inhibition at 0.5 µg/disc worked out at 9 mm.
As for `CC(C)CCCCCCCCCCCC(=O)O[C@@H](c1cnco1)c1nc([C@@H](O)C[C@@H](O)[C@@H](O)[C@@H](C)O)co1` [BENGAZOLE B], in the assay on Candida albicans [3], the Activity is 50%. The zone of inhibition at 0.5 µg/disc with Candida albicans [1] stood at 9 mm.
As to `COC(=O)[C@H](C)[C@@H]1CC[C@](C)([C@@H]2C[C@@]3(C)[C@H](C)C[C@H]4C=C(C)CC[C@H]4[C@@]3(C)O2)OO1`, the result in the assay with Candida albicans [4] was inactive.
